Patent US4663450A, “Optically active cephalosporin analogs” (Kyowa Hakko Kogyo Co., Ltd., priority 1979, dated 1987)
≈ marks a conversion by molar mass, not a printed value.

Assays:
Assay in all cases: Heart Infusion Agar Dilution Method, antimicrobial activity
Type in all cases: cell-based
[1] = test system: Pseudomonas aeruginosa #1
Excerpt: (§1) Heart Infusion Agar Dilution Method (pH 7.2) is used.
as §1

Pseudomonas putida 264 = settings: pH 7.2, Example 6
Excerpt: (§2) Antimicrobial activities of the compound obtained in Example 1 are as follows. Heart Infusion Agar Dilution Method (pH 7.2) is used.
(§3) Antimicrobial activities of the compound obtained in Example 4 and 5 are as follows. Heart Infusion Agar Dilution Method (pH 7.2) is used. Cefazolin is used as a control.

Proteus vulgaris 6897 = settings: pH 7.2, Example 6
Excerpt: as §2, §3

Proteus rettgeri KY 4289 = settings: Providencia rettgeri, KY4289; Proteus retteri KY 4289; pH 7.2; Example 6
Excerpt: as §2, §3

[2] = test system: Staphylococcus aureus Smith; settings: pH 7.2, Example 6
Excerpt: as §2, §3

[3] = test system: Staphylococcus aureus 209-P; settings: pH 7.2, Example 6
Excerpt: as §2, §3

Serratia marcescens T-55 = settings: T55, pH 7.2, Example 6
Excerpt: as §1, §1

Serratia marcescens T-26 = settings: T26, pH 7.2, Example 6
Excerpt: as §1, §1

Escherichia coli NIHJC-2 = settings: NIHJC2, pH 7.2, Example 6
Excerpt: as §1, §1

Proteus mirabilis 1287 = settings: pH 7.2, Example 6
Excerpt: as §1, §1

Escherichia coli Juhl = settings: pH 7.2, Example 6
Excerpt: as §1, §1

[4] = test system: Klebsiella pneumoniae Y-60; settings: Y60, pH 7.2, Example 6
Excerpt: as §1, §1

[5] = test system: Klebsiella pneumoniae 8045; settings: pH 7.2, Example 6
Excerpt: as §1, §1

[6] = test system: Escherichia coli GN2411-5; settings: pH 7.2, Example 6
Excerpt: as §2, §3

[7] = test system: Staphylococcus epidermidis; settings: pH 7.2, Example 6
Excerpt: as §2, §3

[8] = test system: Pseudomonas aeruginosa 145; settings: pH 7.2, Example 6
Excerpt: as §2, §3

Proteus morganii KY 4298 = settings: Morganella morganii, KY4298, pH 7.2, Example 6
Excerpt: as §2, §3

MIC ([1]; pH 7.2) [µg/mL]	MIC (Pseudomonas putida 264) [µg/mL]	MIC (Proteus vulgaris 6897) [µg/mL]	MIC (Proteus rettgeri KY 4289) [µg/mL]	MIC [2] [µg/mL]	MIC [3] [µg/mL]	MIC (Serratia marcescens T-55) [µg/mL]	MIC (Serratia marcescens T-26) [µg/mL]	MIC (Escherichia coli NIHJC-2) [µg/mL]	MIC (Proteus mirabilis 1287) [µg/mL]	MIC (Escherichia coli Juhl) [µg/mL]	MIC ([1]; pH 7.2, Example 6) [µg/mL]	MIC [4] [µg/mL]	MIC [5] [µg/mL]	MIC [6] [µg/mL]	MIC [7] [µg/mL]	MIC [8] [µg/mL]	MIC (Proteus morganii KY 4298) [µg/mL]	Structure (SMILES)
0.73 (≈ 1.91 µM)	–	–	–	–	–	–	–	–	–	–	–	–	–	–	–	–	–	CO/N=C(\C(=O)N[C@@H]1C(=O)N2C(C(=O)O)=C[C@@H](O)C[C@H]12)c1csc(N)n1 [A, (4S, 6R, 7S)-7-[2-(2-amino-4-thiazolyl)-2-syn-methoxyiminoacetamido]-4-hydroxy-1-azabicyclo[4,2,0] oct-2-en-8-on-2-carboxylic acid]
–	50 (≈ 110 µM)	50 (≈ 110 µM)	12.5 (≈ 27.5 µM)	0.2 (≈ 0.44 µM)	0.05 (≈ 0.11 µM)	–	–	–	–	–	–	–	–	–	–	–	–	Cc1nnc(SCC2=C(C(=O)O)N3C(=O)[C@@H](NC(=O)Cn4cnnn4)[C@H]3SC2)s1 [Cefazolin, reference compound]
–	≤ 0.01	≤ 0.01	≤ 0.01	> 100	> 100	0.4 (≈ 0.882 µM)	0.78 (≈ 1.72 µM)	0.78 (≈ 1.72 µM)	0.02 (≈ 0.0441 µM)	0.4 (≈ 0.882 µM)	0.78 (≈ 1.72 µM)	0.2 (≈ 0.441 µM)	0.2 (≈ 0.441 µM)	0.2 (≈ 0.441 µM)	> 100	3.12 (≈ 6.88 µM)	0.1 (≈ 0.221 µM)	CC(C)(O/N=C(\C(=O)N[C@@H]1C(=O)N2C(C(=O)O)=C[C@@H](O)C[C@H]12)c1csc(N)n1)C(=O)O [Example 4, (4S, 6R, 7S)-7-[2-(2-amino-4-thiazolyl)-2-syn-(2-carboxyprop-2-oxyimino)acetamido]-4-hydroxy-1-azabicyclo[4,2,0]oct-2-en-8-on-2-carboxylic acid]
–	0.2 (≈ 0.435 µM)	0.2 (≈ 0.435 µM)	≤ 0.01	50 (≈ 109 µM)	50 (≈ 109 µM)	–	–	3.12 (≈ 6.78 µM)	1.56 (≈ 3.39 µM)	3.12 (≈ 6.78 µM)	–	1.56 (≈ 3.39 µM)	0.78 (≈ 1.69 µM)	0.78 (≈ 1.69 µM)	100 (≈ 217 µM)	25 (≈ 54.3 µM)	1.56 (≈ 3.39 µM)	CO/N=C(\C(=O)N[C@@H]1C(=O)N2C(C(=O)O)=C[C@@H](O)C[C@H]12)c1nc(N)sc1Br [Example 5, (4S, 6R, 7S)-7-[2-(2-amino-5-bromo-4-thiazolyl)-2-syn-methoxyiminoacetamido]-4-hydroxy-1-azabicyclo[4,2,0]oct-2-en-8-on-2-carboxylic acid]
